# Source: patent US10513511B2, “Aqueous suspension formulation comprising 4-(4-(4-(((3R,5R)-5-((1H-1,2,4-triazol-1-yl)methyl)-5-(2,4-difluoro-phenyl)tetrahydrofuran-3-yl)methoxy)-3-methylphenyl) or a pharmaceutically acceptable salt thereof” (PULMOCIDE LIMITED, priority 2015, dated 2019)
# Test system: Aspergillus fumigatus (ATCC 13073)
# Experiment: In vivo anti-fungal activity, therapeutic treatment of infected immunocompromised neutropenic mice
# Set-up: species or system A/J mice
# Conditions: for CFU in lung, % Inhibition of response / DNA in Lung / DNA in Lung, % Inhibition of response / GM in Serum / GM in serum, % Inhibition of response / CFU in lung: therapeutic; for CFU in lung: mean ± SEM, n = 6
# Method: Aspergillus fumigatus (ATCC 13073 [strain: NIH 5233], American Type Culture Collection, Manassas, Va., USA) was grown on Malt agar (Nissui Pharmaceutical, Tokyo, Japan) plates for 6-7 days at RT (24±1° C.). Spores were aseptically dislodged from the agar plates and suspended in sterile distilled water with 0.05% Tween 80 and 0.1% agar. On the day of infection, spore counts were assessed by haemocytometer and the inoculum was adjusted to obtain a concentration of 1.67×10^8 spores mL^−1 of physiological saline. […] On day 0, animals were infected with the spore suspension (30 μL intra-nasally).
# Test substances were administered intra-nasally (35 μL of a suspension (0.0032-10.0 mg/mL of drug substance in physiological saline) once daily, on days 1, 2 and 3 only (thereby representing a therapeutic treatment regimen). For extended prophylactic treatment, test compounds (35 μL of a suspension of 0.0032 or 0.016 mg/mL in physiological saline) were administered intra-nasally once daily for seven days. One group was dosed 30 min before infection on day 0 but not subsequently, while a second group was further dosed on days 1, 2 and 3 after infection. The effects of these treatment paradigms were compared with those obtained when treatment was restricted in other groups to either one day or 30 min before inoculation and then on days 1, 2 and 3 post infection in both cases. In a final group, dosing was limited still further with animals dosed twice, one day and 30 min before infection only.
# Animal body weights were monitored daily and at 6 hr after the last dose of drug was administered on day 3, the animals were anesthetised, the tracheas cannulated and BALF blood and lung tissue were collected. The levels of IL-6 and TNFα in serum were determined using Quantikine® mouse IL-6 or TNF-α ELISA kit (R&D systems, Inc., Minneapolis, Minn., USA) respectively. Aspergillus GM in serum was determination using Platelia GM-EIA kits (Bio-Rad Laboratories, Redmond, Wash., USA). Cut-off index (COI) was calculated by the formula: Cut-off index=OD in sample/OD in cut-off control provided in kit. For tissue fungal load assays, 100 mg of lung tissue was removed aseptically and homogenized in 0.2 mL of 0.1% agar in sterile distilled water. Serially diluted lung homogenates were plated on Malt agar plates (50 μL/plate), and incubated at 24±1° C. for 72 to 96 h. The colonies of A. fumigatus on each plate were counted and the fungal titre presented herein as CFUs per gram of lung tissue.
# For determination of Aspergillus fumigatus DNA content, DNA was extracted from either infected lungs or Aspergillus fumigatus with the Isoplant (Nippon Gene) according to the manufacture's instruction. The tissues cut to <3 mm in any length were mixed with solution I (extraction buffer: 300 μL). Solution II (lysis buffer; benzyl chloride: 150 μL) was then added to the mixtures followed by mixing with a vortex mixer for 5 seconds. After incubation at 50° C. for 15 min, solution III (sodium acetate, pH5.2: 150 μL) was added the mixtures agitated vigorously for 1-3 seconds and then incubated on ice for 15 min. After the incubation, the mixtures were centrifuged at 12,000 g for 15 min at 4° C. DNA in the upper aq phases of the supernatants was precipitated with 100% ethanol (×2.5 vol), washed with 70% ethanol and dissolved in 5-10 μL of TE buffer.
# DNA amplification was performed with Premix Ex Taq™ (Takara Bio) in the 96-well optical reaction plate. Aspergillus fumigatus 18S rRNA gene fragments were amplified with the primer pair; 5′-GGCCCTTAA ATAGCCCGGT-3′ (SEQ ID No. 1) and 5′-[…]-3′ (SEQ ID No. 2), and hybridization probe; 5′-FAM-AGCCAGCGGCCCGCAAATG-TAMRA-3′ (SEQ ID No. 3). Real time PCR was performed in a (25 μL contained 50 ng of mouse DNA with 200 nM of probe) under the following conditions: initial incubation for 2 min at 50° C., initial denaturation for 10 min at 95° C., followed by 55 cycles of 15 seconds at 95° C. and 1 min at 65° C. […]
# [1] = Therapeutic Regimen, intranasal
smiles,measurement,setting,value
"Cc1cc(N2CCN(c3ccc(C(=O)N[C@H]4CCCC[C@@H]4O)cc3)CC2)ccc1OC[C@@H]1CO[C@@](Cn2cncn2)(c2ccc(F)cc2F)C1 [Compound (Ia), 4-(4-(4-(((3R,5R)-5-((1H-1,2,4-triazol-1-yl)methyl)-5-(2,4-difluorophenyl)tetrahydrofuran-3-yl)methoxy)-3-methylphenyl)piperazin-1-yl)-N-((1S,2S)-2-hydroxycyclohexyl) benzamide]","CFU in lung, % Inhibition of response",Drug Conc 3.2 μg/mL intranasal,19%
same,DNA in Lung,Drug Conc 3.2 μg/mL intranasal,41.7 ± 29.0 pg/50 ng mouse DNA
same,"DNA in Lung, % Inhibition of response",Drug Conc 3.2 μg/mL intranasal,41%
same,GM in Serum,Drug Conc 3.2 μg/mL intranasal,2.85 ± 2.76 COI
same,"GM in serum, % Inhibition of response",Drug Conc 3.2 μg/mL intranasal,16%
same,CFU in lung,Drug Conc 3.2 μg/mL intranasal,25.8 ± 20.8 /mg of lung
same,"CFU in lung, % Inhibition of response",Drug Conc 16 μg/mL intranasal,24%
same,DNA in Lung,Drug Conc 16 μg/mL intranasal,56.1 ± 53.4 pg/50 ng mouse DNA
same,"DNA in Lung, % Inhibition of response",Drug Conc 16 μg/mL intranasal,21%
same,GM in Serum,Drug Conc 16 μg/mL intranasal,3.01 ± 2.14 COI
same,"GM in serum, % Inhibition of response",Drug Conc 16 μg/mL intranasal,11%
same,CFU in lung,Drug Conc 16 μg/mL intranasal,24.2 ± 15.8 /mg of lung
same,"CFU in lung, % Inhibition of response",Drug Conc 80 μg/mL intranasal,71%
same,DNA in Lung,Drug Conc 80 μg/mL intranasal,4.10 ± 4.60 pg/50 ng mouse DNA
same,"DNA in Lung, % Inhibition of response",Drug Conc 80 μg/mL intranasal,94%
same,GM in Serum,Drug Conc 80 μg/mL intranasal,0.53 ± 0.38 COI
same,"GM in serum, % Inhibition of response",Drug Conc 80 μg/mL intranasal,84%
same,CFU in lung,Drug Conc 80 μg/mL intranasal,9.30 ± 5.20 /mg of lung
same,"ID50 Values, A. fumigatus DNA in Lung",[1],50 µg/mL
same,"ID50 Values, GM in serum",[1],47 µg/mL
same,"ID50 Values, Lung Fungal Load",[1],51 µg/mL
"CC[C@@H]([C@H](C)O)n1ncn(-c2ccc(N3CCN(c4ccc(OC[C@@H]5CO[C@@](Cn6cncn6)(c6ccc(F)cc6F)C5)cc4)CC3)cc2)c1=O [Posaconazole, reference compound]","ID50 Values, GM in serum",[1],590 µg/mL
same,"ID50 Values, Lung Fungal Load",[1],390 µg/mL
